This note sets out measurements from patent US20250382344A1, “Soluble GLP1/GIP/NPY2 Receptor Triple Agonists” (Boehringer Ingelheim International GmH, priority 2024, published 2025).

The solubility is how much of the substance goes into solution per volume.

Data set [1] is described as follows: Solubility in 0.1 M phosphate buffer at pH 7. It counts as physicochemical. The settings on record: 0.1 M phosphate buffer at pH 7, 10 mg/mL final peptide concentration, shaking 2 hours at room temperature, peptides as TFA-salts, measured sample pH 6.5-7.0; for solubility: read-out: Solubility. As to the method: Peptides (as TFA-salts) were weighed out in a filter unit (Mini-UniPrep Syringeless Filter 0.45 μm, Whatman PVDF), and 0.1 M phosphate buffer at pH 7 was added to achieve 10 mg/mL final peptide concentration. The peptides were dissolved by shaking the filter units horizontally at 600 rpm for 2 hours at room temperature. Samples were then filtered to remove any insoluble particles. Controls were prepared by weighing out the corresponding peptide solid material and dissolving it in an appropriate vehicle (e.g. ACN:H2O) to a final concentration of 1 mg/mL. Both, the control and sample were analyzed by reversed phase chromatography. The area under the peak of the sample was compared to the control and the solubility was calculated based on that ratio. The pH was measured and recorded for each sample.

The next data set has as its target T1, hGIPR (Homo sapiens, UniProt P48546).
T1 construct: expressed in transfected cells; host or cells: CHO CRE-luciferase reporter cells
T1 sequence (P48546 22-466): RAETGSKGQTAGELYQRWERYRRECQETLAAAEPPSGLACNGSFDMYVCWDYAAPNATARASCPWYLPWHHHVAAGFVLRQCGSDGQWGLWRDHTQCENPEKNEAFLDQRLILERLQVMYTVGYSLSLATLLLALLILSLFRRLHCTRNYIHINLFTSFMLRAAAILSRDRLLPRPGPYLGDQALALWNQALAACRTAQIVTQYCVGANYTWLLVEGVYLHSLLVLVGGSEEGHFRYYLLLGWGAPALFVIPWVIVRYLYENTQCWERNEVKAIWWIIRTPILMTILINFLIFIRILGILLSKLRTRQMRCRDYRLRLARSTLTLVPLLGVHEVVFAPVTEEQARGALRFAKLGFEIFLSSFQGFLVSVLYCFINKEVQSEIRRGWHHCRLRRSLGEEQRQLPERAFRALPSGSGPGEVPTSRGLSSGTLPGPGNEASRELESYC
Nature of the data set: hGIPR CreLuc assay in 0.5% and 100% plasma (CHO CRE-luciferase reporter cells). The settings on record: 0.5% human plasma, read-out: hGIPR 0.5% hP. It counts as cell-based. From the text:
CHO and HEK-293 recombinant cell lines express a luciferase reporter gene under control of the CAMP responsive element (CRE). As a second recombinant protein the GLP-1 and NPY2 receptors were expressed in the reporter gene HEK cells, and the GIP receptor was expressed in the reporter gene CHO cells, respectively. Stimulation of these recombinant cells with an agonist leads to an increase of intracellular CAMP levels. In the presence of CAMP, the transcription factor CRE binding protein (CREB) binds to the CRE and to the CREB binding protein (CBP), which leads to transcription of the luciferase reporter gene. Peptides upon serial-dilution in 100% DMSO were transferred into 384-well assay plates with 5 μl pre-dispensed assay buffer (1×HBSS, 20 mM HEPES, pH7.4 supplemented with 0.5% human plasma) using acoustic dispensing on a Labcyte ECHO. Cryo-preserved transgenic reporter gene cells were thawed in assay buffer. 20 μl (10.000 cells/well) were added to the plate with the peptides and incubated for 4 hours at 37° C. in a humidified incubator. Following incubation, assay plates are equilibrated to room temperature, followed by addition of 25 μl of Bright-Glo™ Luciferase reagent, incubation at room temperature for 10 minutes and analysis of luminescence (Envision Reader). […] EC50 values were calculated by non-linear regression using sigmoid concentration-response with variable slope.
The same assays were run in the presence of 100% plasma with no additional buffer constituents.
(Reporter assays use an easily measured gene product as a stand-in for the process of interest.)

Regarding `CC[C@H](C)[C@H](NC(=O)[C@H](CCCCN)NC(=O)[C@H](CCC(=O)O)NC(=O)[C@H](CC(C)C)NC(=O)C(C)(C)NC(=O)[C@@H](NC(=O)[C@H](CO)NC(=O)[C@H](Cc1ccc(O)cc1)NC(=O)[C@H](CC(=O)O)NC(=O)[C@H](CO)NC(=O)[C@@H](NC(=O)[C@H](Cc1ccccc1)NC(=O)[C@@H](NC(=O)CNC(=O)[C@H](CCC(=O)O)NC(=O)C(C)(C)NC(=O)[C@@H](N)Cc1ccc(O)cc1)[C@@H](C)O)[C@@H](C)O)[C@@H](C)CC)C(=O)N[C@@H](C)C(=O)N[C@@H](CCC(N)=O)C(=O)NC(C)(C)C(=O)N[C@@H](C)C(=O)N[C@@H](Cc1ccccc1)C(=O)N[C@H](C(=O)N[C@@H](CCCNC(=N)N)C(=O)N[C@@H](Cc1c[nH]cn1)C(=O)N[C@@H](CC(C)C)C(=O)N[C@H](C(=O)N[C@@H](CC(N)=O)C(=O)N[C@@H](CCCCNC(=O)[C@@H](N)CCCCNC(=O)CC[C@H](NC(=O)CC[C@H](NC(=O)CC[C@H](NC(=O)CC[C@H](NC(=O)CC[C@H](NC(=O)CC[C@H](NC(=O)CCCCCCCCCCCCCCCCC(=O)O)C(=O)O)C(=O)O)C(=O)O)C(=O)O)C(=O)O)C(=O)O)C(=O)NC(C)(C)C(=O)N[C@H](C(=O)N[C@@H](CCCNC(=N)N)C(=O)N[C@@H](CCC(N)=O)C(=O)N[C@@H](CCCNC(=N)N)C(=O)N[C@@H](Cc1ccc(O)cc1)C(N)=O)[C@@H](C)O)[C@@H](C)CC)C(C)C` [Compound 24, Y-Aib-E-G-T-F-T-S-D-Y-S-I-Aib-L-E-K-I-A-Q-Aib-A-F-V-R-H-L-I-N-K(1,3)-Aib-T-R-Q-R-Y-NH2.C18DA-gGlu-gGlu-gGlu-gGlu-gGlu-gGlu-eLys(1,2)], in data set [1], the solubility was determined as 8100 µg/mL.

Take `CC[C@H](C)[C@H](NC(=O)[C@H](CC(C)C)NC(=O)[C@H](Cc1c[nH]cn1)NC(=O)[C@H](CCCNC(=N)N)NC(=O)[C@@H](NC(=O)[C@H](Cc1ccccc1)NC(=O)[C@H](C)NC(=O)C(C)(C)NC(=O)[C@H](CCC(N)=O)NC(=O)[C@H](C)NC(=O)[C@H](CCC(=O)O)NC(=O)[C@H](CCCCN)NC(=O)[C@H](CCC(=O)O)NC(=O)[C@H](CC(C)C)NC(=O)C(C)(C)NC(=O)[C@@H](NC(=O)[C@H](CO)NC(=O)[C@H](Cc1ccc(O)cc1)NC(=O)[C@H](CC(=O)O)NC(=O)[C@H](CO)NC(=O)[C@@H](NC(=O)[C@H](Cc1ccccc1)NC(=O)[C@@H](NC(=O)CNC(=O)[C@H](CCC(=O)O)NC(=O)C(C)(C)NC(=O)[C@@H](N)Cc1ccc(O)cc1)[C@@H](C)O)[C@@H](C)O)[C@@H](C)CC)C(C)C)C(=O)N[C@@H](CC(N)=O)C(=O)N[C@@H](CCCCNC(=O)[C@@H](N)CCCCNC(=O)[C@H](CCC(=O)O)NC(=O)CC[C@H](NC(=O)CC[C@H](NC(=O)CC[C@H](NC(=O)CC[C@H](NC(=O)CC[C@H](NC(=O)CCCCCCCCCCCCCCCCCCC(=O)O)C(=O)O)C(=O)O)C(=O)O)C(=O)O)C(=O)O)C(=O)NC(C)(C)C(=O)N[C@H](C(=O)N[C@@H](CCCNC(=N)N)C(=O)N[C@@H](CCC(N)=O)C(=O)N[C@@H](CCCNC(=N)N)C(=O)N[C@@H](Cc1ccc(O)cc1)C(N)=O)[C@@H](C)O` [Compound 28, Y-Aib-E-G-T-F-T-S-D-Y-S-I-Aib-L-E-K-E-A-Q-Aib-A-F-V-R-H-L-I-N-K(1,3)-Aib-T-R-Q-R-Y-NH2.C20DA-gGlu-gGlu-gGlu-gGlu-gGlu-gGlu-eLys(1,2)]: in data set [1], the solubility was determined as 10000 µg/mL.

Take `CC[C@H](C)[C@H](NC(=O)[C@H](CC(C)C)NC(=O)[C@H](Cc1c[nH]cn1)NC(=O)[C@H](CCCNC(=N)N)NC(=O)[C@@H](NC(=O)[C@H](Cc1ccccc1)NC(=O)[C@H](C)NC(=O)C(C)(C)NC(=O)[C@H](CCC(N)=O)NC(=O)[C@H](CCC(=O)O)NC(=O)[C@H](CCC(N)=O)NC(=O)[C@H](CCCCN)NC(=O)[C@H](CCC(=O)O)NC(=O)[C@H](CC(C)C)NC(=O)C(C)(C)NC(=O)[C@@H](NC(=O)[C@H](CO)NC(=O)[C@H](Cc1ccc(O)cc1)NC(=O)[C@H](CC(=O)O)NC(=O)[C@H](CO)NC(=O)[C@@H](NC(=O)[C@H](Cc1ccccc1)NC(=O)[C@@H](NC(=O)CNC(=O)[C@H](CCC(=O)O)NC(=O)C(C)(C)NC(=O)[C@@H](N)Cc1ccc(O)cc1)[C@@H](C)O)[C@@H](C)O)[C@@H](C)CC)C(C)C)C(=O)N[C@@H](CC(N)=O)C(=O)N[C@@H](CCCCNC(=O)[C@@H](N)CCCCNC(=O)CC[C@H](NC(=O)CC[C@H](NC(=O)CC[C@H](NC(=O)CC[C@H](NC(=O)CC[C@H](NC(=O)CC[C@H](NC(=O)CCCCCCCCCCCCCCCCC(=O)O)C(=O)O)C(=O)O)C(=O)O)C(=O)O)C(=O)O)C(=O)O)C(=O)NC(C)(C)C(=O)N[C@H](C(=O)N[C@@H](CCCNC(=N)N)C(=O)N[C@@H](CCC(N)=O)C(=O)N[C@@H](CCCNC(=N)N)C(=O)N[C@@H](Cc1ccc(O)cc1)C(N)=O)[C@@H](C)O` [Compound 36, Y-Aib-E-G-T-F-T-S-D-Y-S-I-Aib-L-E-K-Q-E-Q-Aib-A-F-V-R-H-L-I-N-K(1,3)-Aib-T-R-Q-R-Y-NH2.C18DA-gGlu-gGlu-gGlu-gGlu-gGlu-gGlu-eLys(1,2)]: the solubility at 2 h in data set [1] is 5000 µg/mL.

Regarding `CC[C@H](C)[C@H](NC(=O)[C@H](CO)NC(=O)[C@H](Cc1ccc(O)cc1)NC(=O)[C@H](CC(=O)O)NC(=O)[C@H](CO)NC(=O)[C@@H](NC(=O)[C@H](Cc1ccccc1)NC(=O)[C@@H](NC(=O)CNC(=O)[C@H](CCC(=O)O)NC(=O)C(C)(C)NC(=O)[C@@H](N)Cc1ccc(O)cc1)[C@@H](C)O)[C@@H](C)O)C(=O)NC(C)(C)C(=O)N[C@@H](CC(C)C)C(=O)N[C@@H](CCC(=O)O)C(=O)N[C@@H](CCCCN)C(=O)N[C@@H](CCC(N)=O)C(=O)N[C@@H](C)C(=O)N[C@@H](CCC(N)=O)C(=O)NC(C)(C)C(=O)N[C@@H](C)C(=O)N[C@@H](Cc1ccccc1)C(=O)N[C@H](C(=O)N[C@@H](CCCNC(=N)N)C(=O)N[C@@H](Cc1c[nH]cn1)C(=O)N[C@@H](CC(C)C)C(=O)N[C@@H](CC(C)C)C(=O)N[C@@H](CC(N)=O)C(=O)N[C@@H](CCCCNC(=O)[C@@H](N)CCCCNC(=O)CC[C@H](NC(=O)CC[C@H](NC(=O)CC[C@H](NC(=O)CC[C@H](NC(=O)CC[C@H](NC(=O)CC[C@H](NC(=O)CCCCCCCCCCCCCCCCCCC(=O)O)C(=O)O)C(=O)O)C(=O)O)C(=O)O)C(=O)O)C(=O)O)C(=O)NC(C)(C)C(=O)N[C@H](C(=O)N[C@@H](CCCNC(=N)N)C(=O)N[C@@H](CCC(N)=O)C(=O)N[C@@H](CCCNC(=N)N)C(=O)N[C@@H](Cc1ccc(O)cc1)C(N)=O)[C@@H](C)O)C(C)C` [Compound 80, Y-Aib-E-G-T-F-T-S-D-Y-S-I-Aib-L-E-K-Q-A-Q-Aib-A-F-V-R-H-L-L-N-K(1,3)-Aib-T-R-Q-R-Y-NH2.C20DA-gGlu-gGlu-gGlu-gGlu-gGlu-gGlu-eLys(1,2)], the EC50 at hGIPR is 1.7 nM.
